What was measured:
[1] = test system: Akt kinase activity; assay: Akt kinase sensor complemented FL activity, bioluminescence imaging of intact 293T/AS1T and 293T/AS1A stable cells; assay type: cell-based, human; details: AS1T sensor
Protocol: Complemented FL activity at each time point was determined by bioluminescence imaging of intact cells by addition of D-luciferin (FIG. 7a), prior to normalization for protein content (FIG. 7b).
FL activities in intact cells were determined by bioluminescence imaging of intact cells as described above. Cells were lysed in 1% NP40 buffer (Cell Signaling, Beverly, Mass.) for 15 mins on ice followed by centrifugation at 1×10^4 g to remove cell debris. Protein concentrations were determined by Biorad protein Dc assay (Biorad). FL activities were normalized to protein content and then to that of carrier control treated cells and expressed as normalized FL activity±standard error of means (S.E.M.)

[2] = test system: Akt kinase activity; assay: Akt kinase sensor (AS1T/AS1A) complemented FL activity, luminometer assay in transiently transfected BT474 cells; assay type: cell-based, human; details: BT474 transiently transfected with AS1T, 24 hours, at 50 μM, relative to carrier control, p<0.05
Protocol: FL activity was determined by luminometer assays using cell lysates and normalized for protein content and transfection efficiency. LY treatment of BT474 cells transiently transfected with AS1T led to a dose dependent increase in FL activity in (1.3-fold maximum increase, p<0.05 at 50 μM, relative to carrier control treated cells).
(§1) Transfections were performed in 80% confluent 24 hr-old cultures of 293T and BT474 cells. For transient transfection, 250 ng/well of pcDNA molar equivalent of each AS1A and AS1T were used in 12-well tissue culture plates and 5 μl Lipofectamine 2000 was used per transfection following the manufacturer's instructions. 5 ng of pcDNA3.1(+) vector expressing full length RL was co-transfected per well to normalize for transfection efficiency. […]
(§2) In brief, transfected cells were lysed in 200 μl of ice-cold 1× passive lysis buffer supplied by Promega and were shaken for 15 mins on ice. […] RL activity was determined as described for FL activity, except 0.5 μg of coelenterazine dissolved in 100 μl of was used. Protein concentrations in cell lysates were determined by Bradford Assay (Bio-Rad). FL activities were normalized for protein content and for transfection efficiency using RL activity and expressed as relative light units per microgram protein per minute of counting (RLU/μg protein/min).

[3] = test system: Akt kinase activity; assay: Akt kinase sensor complemented FL activity, luminometer assay in transiently transfected 293T cells; assay type: cell-based, human
Protocol: Next the hypothesis that activation of Akt activity would lead to increased phosphorylation of AKM and interaction with FHA2 in AS1T was tested, and subsequent inhibition of split FL complementation. 293T cells transiently transfected with AS1T and AS1A were treated with platelet derived growth factor (PDGF) for 30 minutes prior to analysis of FL activity.
To increase the dynamic range of AS1T for indirect monitoring of Akt kinase activity, the original FL fragments (NFL: 1-416/CFL: 398-550) were replaced with the optimal split FL sites (1-398/394-550) as AS2T. The corresponding FL fragments in AS1A were also replaced to create AS2A. 293T cells transiently transfected with AS2T or AS2A were treated with different concentrations of LY or carrier control for 24 hours prior to analysis of FL activity. […] To determine if the specificity of AS2 can be restored by using more rigid linkers, the flexible (G4S)3 linkers were replaced with (EAAAR)3 used for intramolecular folding sensors previously used to studying FRB/FKBP12 interactions. However, there was a loss of specificity in response to LY.
as §1, §2

[4] = test system: insulin receptor substrate 1 (IRS-1) phosphorylation; assay: Firefly Luciferase based IRS-1 phosphorylation sensor in transfected CHO-IR cells; assay type: cell-based; details: presence of insulin compared to no insulin exposure
Excerpt: FIG. 4 is a graph of the activation of the Firefly Luciferase based IRS-1 phosphorylation sensor as a function of Insulin exposure. Results of CHO-IR cells transfected and co-transfected with a self-complementing Firefly Luciferase based IRS-1 sensor used for studying insulin mediated IRS-1 phosphorylation. A two-vector system, single fusion vector with and without a semi-rigid linker were all compared. Greater absolute signal is seen with the fusion vector strategies.
Next, constructs were made using self-complementing split fragments of Firefly Luciferase with a semi-rigid linker or without any linker, and these were compared with two separate vectors (non-fusion approach) in CHO-IR cells in the presence and absence of insulin (FIG. 3). The results of these studies show signal from all three vectors in the presence of insulin, but the highest absolute signal is from the two fusion vectors. Furthermore, for the two fusion vectors the background signal is lowest (prior to insulin exposure) when using the fusion vector with a semi-rigid linker.
The fusion strategy increases absolute signal as compared to using two separate vectors. Furthermore, using a semi-rigid linker decreases background signal in the fusion vector strategy. […]

[5] = test system: insulin receptor substrate 1 (IRS-1) phosphorylation; assay: Bioluminescence CCD imaging of split Firefly Luciferase IRS-1 phosphorylation sensor, CHO-IR cells implanted in living mice; assay type: in vivo, nude mice; details: mice with implanted sensor-transfected CHO-IR cells, 4 IU s.c. in twelve hour intervals, imaged 24 hours later
Protocol: FIG. 5 illustrates a bioluminescence CCD imaging of a split Firefly Luciferase based Insulin Receptor Substrate 1 (IRS-1) phosphorylation sensor in a living mouse.
Four nude mice were implanted with 5 million CHO-IR cells transiently transfected with the fusion split firefly IRS-1 phosphorylation sensor with linker (EAAAR)2 and also with 5 million CHO-IR mock-transfected cells at two separate sites. The mice were imaged using D-Luciferin (3 mg i.p.) with a CCD camera. Two mice were then given 4 IU human long-acting insulin (s.c.) in twelve hour intervals, and two were not given insulin and all four were imaged again 24 hours later. Consistent results were obtained in the 2 mice in each group with exposure to insulin leading to an increase in signal (˜5-fold induction) and lack of insulin exposure leading to minimal change (˜1.3 fold induction).

[6] = test system: insulin receptor substrate 1 (IRS-1) phosphorylation; assay: Renilla Luciferase based IRS-1 phosphorylation sensor, luminometer assay in transfected CHO-IR cells; assay type: cell-based; details: 24 h incubation, insulin 0, 25, 50 and 100 nM
Protocol: FIG. 3 is a graph of the activation of the Renilla Luciferase based IRS-1 phosphorylation sensor as a function of Insulin concentration. Luminometer assay result of CHO-IR cells transfected with a phosphorylation sensor vector and assayed after 24 h of incubation with the addition of different concentrations of insulin (0, 25, 50 and 100 nM).
The IRS-1 phosphorylation sensor was tested based on split renilla and split Firefly Luciferase in transient transfection assays in cell culture with and without insulin. The single fusion vector (FIG. 2) was utilized with split Renilla Luciferase (split site 229, non-self complementing), with a semi-rigid peptide ((EAAAR)2 (SEQ ID NO: 36)) through screening of different peptides. The phosphorylation domain was the PTB peptide and was chosen to be an 13 amino acid peptide (SEQ ID NO: 28) including Y941 (tyrosine at position 941 of IRS-1). The substrate recognition domain was chosen to be the SH2 domain of PI3 Kinase. The vector constructed was transiently transfected in CHO-IR (expressing the insulin receptor) and 293T cells (not expressing the insulin receptor).

O=c1cc(N2CCOCC2)oc2c(-c3ccccc3)cccc12 [LY, LY294002]
maximum induction (dynamic range of AS1T) [1]: 4 fold
maximum increase in FL activity [2]: 1.3 fold
increase in FL activity with AS2T or AS2A compared to AS1T or AS1A ([3]; 293T transiently transfected, LY for 24 hours, unpublished data): 2 fold

insulin
signal of split bioluminescence reporter IRS-1 sensor [4]: increased signal
increase in signal (induction) [5]: ~5 fold induction
complemented Renilla Luciferase activity [6]: concentration dependent increase

platelet derived growth factor [PDGF]
FL activity ([3]; 293T transiently transfected with AS1A, 30 minutes treatment, p>0.05): did not significantly decrease
decrease in FL activity ([3]; 293T transiently transfected with AS1T, 30 minutes treatment, vs carrier control, p<0.05): 60%

Source: US7834148B2, “Protein phosphorylation imaging systems, methods of making phosphorylation imaging systems, and methods of use thereof” (Stanford University, priority 2006, dated 2010)
